According to US12404279B2, “Deubiquitinase inhibitors and methods of use thereof” (Molecure S.A., priority 2021, dated 2025):
Structures can show the parent of a compound that is named as a salt.

Molecular target: full-length USP7 (Homo sapiens (Human), UniProt Q93009)
Assay: Enzymatic assay to determine IC50 of USP7 inhibitors (Ubiquitin-Rhodamine 110 cleavage)
Type: biochemical
Details: for IC50: 0.5 nM USP7, 0.5 μM Ubiquitin-Rhodamine 110, 45 min at 37° C.; for inhibition at 1 µM: at 1 μM of the test compound, given where IC50 not determined yet, read-out: percent value of inhibition of USP7 activity
In short: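 Enzyme: 0.5 nM full-length USP7 in HEPES pH 7.5 buffer with NaCl, DTT, BSA and Tween20, given 15 min at room temperature with DTT before compounds were added.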

Chain of full-length USP7 (Q93009 whole entry): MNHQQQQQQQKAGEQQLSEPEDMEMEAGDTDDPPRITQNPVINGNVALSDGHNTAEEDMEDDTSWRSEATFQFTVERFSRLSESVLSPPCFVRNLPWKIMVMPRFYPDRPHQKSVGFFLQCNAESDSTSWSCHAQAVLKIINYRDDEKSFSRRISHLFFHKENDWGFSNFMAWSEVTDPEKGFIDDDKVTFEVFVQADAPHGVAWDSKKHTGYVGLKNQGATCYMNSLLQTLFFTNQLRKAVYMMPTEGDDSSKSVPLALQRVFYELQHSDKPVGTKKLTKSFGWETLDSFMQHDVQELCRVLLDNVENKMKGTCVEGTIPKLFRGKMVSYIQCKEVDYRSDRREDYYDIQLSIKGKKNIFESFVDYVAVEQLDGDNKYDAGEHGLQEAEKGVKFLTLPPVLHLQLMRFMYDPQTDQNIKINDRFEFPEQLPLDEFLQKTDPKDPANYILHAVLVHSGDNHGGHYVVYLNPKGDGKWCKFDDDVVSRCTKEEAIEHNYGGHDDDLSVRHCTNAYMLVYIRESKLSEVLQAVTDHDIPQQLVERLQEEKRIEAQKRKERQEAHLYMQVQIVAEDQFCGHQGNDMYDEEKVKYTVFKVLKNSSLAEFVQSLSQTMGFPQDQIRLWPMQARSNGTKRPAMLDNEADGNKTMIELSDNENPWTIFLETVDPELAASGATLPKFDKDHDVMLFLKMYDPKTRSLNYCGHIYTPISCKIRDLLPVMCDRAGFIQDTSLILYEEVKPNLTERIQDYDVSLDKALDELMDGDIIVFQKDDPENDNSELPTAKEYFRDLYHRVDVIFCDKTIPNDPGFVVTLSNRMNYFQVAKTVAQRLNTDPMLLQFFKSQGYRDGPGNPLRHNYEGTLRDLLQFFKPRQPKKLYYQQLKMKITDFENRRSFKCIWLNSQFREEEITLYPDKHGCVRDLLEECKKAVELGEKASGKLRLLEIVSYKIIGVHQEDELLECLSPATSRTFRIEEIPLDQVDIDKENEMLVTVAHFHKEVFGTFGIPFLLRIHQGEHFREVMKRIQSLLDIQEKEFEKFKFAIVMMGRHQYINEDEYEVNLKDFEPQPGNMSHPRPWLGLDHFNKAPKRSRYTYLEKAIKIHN

| IC50 [nM] | inhibition at 1 µM [%] | SMILES |
| --- | --- | --- |
| 500 to 1000 |  | Cc1cc(C#N)nc(-c2ccnc3cc(CN4C(=O)C5C(C4=O)C5(C)C)sc23)c1C(=O)N1CCOCC1 (stereo not drawn) [Example 58, 6-(2-((6,6-dimethyl-2,4-dioxo-3-azabicyclo[3.1.0]hexan-3-yl)methyl)thieno[3,2-b]pyridin-7-yl)-4-methyl-5-(morpholine-4-carbonyl)picolinonitrile hydrochloride] |
| < 500 |  | Cc1cc(C#N)nc(-c2ccnc3cc(CN4C(=O)C5C(C4=O)C5(C)C)sc23)c1C(=O)N1CCC(F)(F)C1 (stereo not drawn) [Example 59, 5-(3,3-difluoropyrrolidine-1-carbonyl)-6-(2-((6,6-dimethyl-2,4-dioxo-3-azabicyclo[3.1.0]hexan-3-yl)methyl)thieno[3,2-b]pyridin-7-yl)-4-methylpicolinonitrile hydrochloride] |
| > 10000 |  | CNCC(=O)Nc1c(-c2ccnc3cc(CN4C(=O)C5C(C4=O)C5(C)C)sc23)cc(C(F)(F)F)nc1C (stereo not drawn) [Example 60, N-(4-(2-((6,6-dimethyl-2,4-dioxo-3-azabicyclo[3.1.0]hexan-3-yl)methyl)thieno[3,2-b]pyridin-7-yl)-2-methyl-6-(trifluoromethyl)pyridin-3-yl)-2-(methylamino)acetamide 2,2,2-trifluoroacetate] |
| > 10000 |  | COCC(=O)Nc1c(-c2ccnc3cc(CN4C(=O)C5C(C4=O)C5(C)C)sc23)cc(C(F)(F)F)nc1C (stereo not drawn) [Example 61, N-(4-(2-((6,6-dimethyl-2,4-dioxo-3-azabicyclo[3.1.0]hexan-3-yl)methyl)thieno[3,2-b]pyridin-7-yl)-2-methyl-6-(trifluoromethyl)pyridin-3-yl)-2-methoxyacetamide 2,2,2-trifluoroacetate] |
| 1000 to 10000 |  | Cc1nc(C(F)(F)F)cc(-c2ccnc3cc(CN4C(=O)C5C(C4=O)C5(C)C)sc23)c1NC(=O)C(F)(F)F (stereo not drawn) [Example 62, N-(4-(2-((6,6-dimethyl-2,4-dioxo-3-azabicyclo[3.1.0]hexan-3-yl)methyl)thieno[3,2-b]pyridin-7-yl)-2-methyl-6-(trifluoromethyl)pyridin-3-yl)-2,2,2-trifluoroacetamide 2,2,2-trifluoroacetate] |
| > 10000 |  | Cc1nc(C(F)(F)F)cc(-c2ccnc3cc(CN4C(=O)C5C(C4=O)C5(C)C)sc23)c1NC(=O)c1cccnc1 (stereo not drawn) [Example 63, N-(4-(2-((6,6-dimethyl-2,4-dioxo-3-azabicyclo[3.1.0]hexan-3-yl)methyl)thieno[3,2-b]pyridin-7-yl)-2-methyl-6-(trifluoromethyl)pyridin-3-yl)nicotinamide 2,2,2-trifluoroacetate] |
| 1000 to 10000 |  | Cc1nc(C(F)(F)F)cc(-c2ccnc3cc(CN4C(=O)C5C(C4=O)C5(C)C)sc23)c1NC(=O)C1CNC1 (stereo not drawn) [Example 66, N-(4-(2-((6,6-dimethyl-2,4-dioxo-3-azabicyclo[3.1.0]hexan-3-yl)methyl)thieno[3,2-b]pyridin-7-yl)-2-methyl-6-(trifluoromethyl)pyridin-3-yl)azetidine-3-carboxamide 2,2,2-trifluoroacetate] |
|  | < 20 | Cc1nc2c(-c3cc(Cl)cc(C)c3O[C@H]3CCCNC3)ccnc2[nH]1 [Example 67, (S)-7-(5-chloro-3-methyl-2-(piperidin-3-yloxy)phenyl)-2-methyl-3H-imidazo[4,5-b]pyridine hydrochloride] |
|  | < 20 | Cc1cc(Cl)cc(-c2ccnc3c2nc(C)n3C)c1O[C@H]1CCCNC1 [Example 68, (S)-7-(5-chloro-3-methyl-2-(piperidin-3-yloxy)phenyl)-2,3-dimethyl-3H-imidazo[4,5-b]pyridine hydrochloride] |
|  | < 20 | Cc1cc(Cl)cc(-c2ccnc3nc(C)n(C)c23)c1O[C@H]1CCCNC1 [Example 69, (S)-7-(5-chloro-3-methyl-2-(piperidin-3-yloxy)phenyl)-1,2-dimethyl-1H-imidazo[4,5-b]pyridine hydrochloride] |
| 500 to 1000 |  | Cc1cc(C(F)(F)F)nc(-c2ccnc3cc(CN4C(=O)C5C(C4=O)C5(C)C)sc23)c1C(=O)NC1CNC1 (stereo not drawn) [Example 70, N-(azetidin-3-yl)-2-(2-((6,6-dimethyl-2,4-dioxo-3-azabicyclo[3.1.0]hexan-3-yl)methyl)thieno[3,2-b]pyridin-7-yl)-4-methyl-6-(trifluoromethyl)nicotinamide dihydrochloride] |
| < 500 |  | Cc1cc(C(F)(F)F)nc(-c2ccnc3cc(CN4C(=O)C5C(C4=O)C5(C)C)sc23)c1C(=O)N1CCC2(CCCN2)C1 (stereo not drawn) [Example 71, 6,6-dimethyl-3-((7-(4-methyl-3-(1,7-diazaspiro[4.4]nonane-7-carbonyl)-6-(trifluoromethyl)pyridin-2-yl)thieno[3,2-b]pyridin-2-yl)methyl)-3-azabicyclo[3.1.0]hexane-2,4-dione dihydrochloride] |
| < 500 |  | CCN[C@H]1CCN(C(=O)c2c(C)cc(C(F)(F)F)nc2-c2ccnc3cc(CN4C(=O)C5C(C4=O)C5(C)C)sc23)C1 (stereo partly drawn) [Example 73, 3-((7-(3-((S)-3-(ethylamino)pyrrolidine-1-carbonyl)-4-methyl-6-(trifluoromethyl)pyridin-2-yl)thieno[3,2-b]pyridin-2-yl)methyl)-6,6-dimethyl-3-azabicyclo[3.1.0]hexane-2,4-dione dihydrochloride] |
| < 500 |  | Cc1cc(C(F)(F)F)nc(-c2ccnc3cc(CN4C(=O)C5C(C4=O)C5(C)C)sc23)c1C(=O)N1CC[C@H](NC(C)C)C1 (stereo partly drawn) [Example 74, 3-((7-(3-((S)-3-(isopropylamino)pyrrolidine-1-carbonyl)-4-methyl-6-(trifluoromethyl)pyridin-2-yl)thieno[3,2-b]pyridin-2-yl)methyl)-6,6-dimethyl-3-azabicyclo[3.1.0]hexane-2,4-dione dihydrochloride] |
| 1000 to 10000 |  | Cc1cc(C(F)(F)F)nc(-c2ccnc3cc(CN4C(=O)C5C(C4=O)C5(C)C)sc23)c1C(=O)N[C@H]1CCNC1 (stereo partly drawn) [Example 75, 2-(2-((6,6-dimethyl-2,4-dioxo-3-azabicyclo[3.1.0]hexan-3-yl)methyl)thieno[3,2-b]pyridin-7-yl)-4-methyl-N—((S)-pyrrolidin-3-yl)-6-(trifluoromethyl)nicotinamide dihydrochloride] |
| < 500 |  | Cc1cc(C(F)(F)F)nc(-c2ccnc3cc(CN4C(=O)C5C(C4=O)C5(C)C)sc23)c1C(=O)N1CCNCC1 (stereo not drawn) [Example 76, 6,6-dimethyl-3-((7-(4-methyl-3-(piperazine-1-carbonyl)-6-(trifluoromethyl)pyridin-2-yl)thieno[3,2-b]pyridin-2-yl)methyl)-3-azabicyclo[3.1.0]hexane-2,4-dione dihydrochloride] |
| < 500 |  | Cc1cc(C(F)(F)F)nc(-c2ccnc3cc(CN4C(=O)C5C(C4=O)C5(C)C)sc23)c1C(=O)N1CCNC[C@@H]1C (stereo partly drawn) [Example 78, 6,6-dimethyl-3-((7-(4-methyl-3-((S)-2-methylpiperazine-1-carbonyl)-6-(trifluoromethyl)pyridin-2-yl)thieno[3,2-b]pyridin-2-yl)methyl)-3-azabicyclo[3.1.0]hexane-2,4-dione dihydrochloride] |
| < 500 |  | Cc1cc(C(F)(F)F)nc(-c2ccnc3cc(CN4C(=O)C5C(C4=O)C5(C)C)sc23)c1C(=O)N1CCN(C)C[C@@H]1C (stereo partly drawn) [Example 79, 3-((7-(3-((S)-2,4-dimethylpiperazine-1-carbonyl)-4-methyl-6-(trifluoromethyl)pyridin-2-yl)thieno[3,2-b]pyridin-2-yl)methyl)-6,6-dimethyl-3-azabicyclo[3.1.0]hexane-2,4-dione hydrochloride] |
| < 500 |  | Cc1cc(C(F)(F)F)nc(-c2ccnc3cc(CN4C(=O)C5C(C4=O)C5(C)C)sc23)c1C(=O)N1CCN(C)CC1 (stereo not drawn) [Example 80, 6,6-dimethyl-3-((7-(4-methyl-3-(4-methylpiperazine-1-carbonyl)-6-(trifluoromethyl)pyridin-2-yl)thieno[3,2-b]pyridin-2-yl)methyl)-3-azabicyclo[3.1.0]hexane-2,4-dione dihydrochloride] |
| < 500 |  | Cc1cc(C(F)(F)F)nc(-c2ccnc3cc(CN4C(=O)C5C(C4=O)C5(C)C)sc23)c1C(=O)N1CCC(F)(F)C1 (stereo not drawn) [Example 83, 3-((7-(3-(3,3-difluoropyrrolidine-1-carbonyl)-4-methyl-6-(trifluoromethyl)pyridin-2-yl)thieno[3,2-b]pyridin-2-yl)methyl)-6,6-dimethyl-3-azabicyclo[3.1.0]hexane-2,4-dione hydrochloride] |
| 500 to 1000 |  | Cc1cc(C(F)(F)F)nc(-c2ccnc3cc(CN4C(=O)C5C(C4=O)C5(C)C)sc23)c1C(=O)N1CCOCC1 (stereo not drawn) [Example 84, 6,6-dimethyl-3-((7-(4-methyl-3-(morpholine-4-carbonyl)-6-(trifluoromethyl)pyridin-2-yl)thieno[3,2-b]pyridin-2-yl)methyl)-3-azabicyclo[3.1.0]hexane-2,4-dione hydrochloride] |
| > 10000 |  | Cc1nc(C(F)(F)F)cc(-c2ccnc3cc(CN4C(=O)C5C(C4=O)C5(C)C)sc23)c1NC(=O)C1CC(F)(F)C1 (stereo not drawn) [Example 86, N-(4-(2-((6,6-dimethyl-2,4-dioxo-3-azabicyclo[3.1.0]hexan-3-yl)methyl)thieno[3,2-b]pyridin-7-yl)-2-methyl-6-(trifluoromethyl)pyridin-3-yl)-3,3-difluorocyclobutane-1-carboxamide hydrochloride] |
| 1000 to 10000 |  | Cc1nc(C(F)(F)F)cc(-c2ccnc3cc(CN4C(=O)C5C(C4=O)C5(C)C)sc23)c1NC(=O)C1CCNCC1 (stereo not drawn) [Example 87, N-(4-(2-((6,6-dimethyl-2,4-dioxo-3-azabicyclo[3.1.0]hexan-3-yl)methyl)thieno[3,2-b]pyridin-7-yl)-2-methyl-6-(trifluoromethyl)pyridin-3-yl)piperidine-4-carboxamide hydrochloride] |
| < 500 |  | Cc1nc(C(F)(F)F)cc(-c2ccnc3cc(CN4C(=O)C5C(C4=O)C5(C)C)sc23)c1CC1CCNC1 (stereo not drawn) [Example 89, 6,6-dimethyl-3-((7-(2-methyl-3-(pyrrolidin-3-ylmethyl)-6-(trifluoromethyl)pyridin-4-yl)thieno[3,2-b]pyridin-2-yl)methyl)-3-azabicyclo[3.1.0]hexane-2,4-dione hydrochloride] |
